Experimental data taken from ChEMBL document CHEMBL4364347, “Recent advances in class IIa histone deacetylases research” (Bioorg Med Chem, 2019).
pIC50, pKi: −log10 of the molar value.

Key:
Histone deacetylase 9 [1] = biological target: T1, Histone deacetylase 9 (Homo sapiens, UniProt Q9UKV0); assay: Inhibition of HDAC9 in human HeLa nuclear extract using Boc-Lys(Ac)-AMC as substrate preincubated for 5 mins followed by substrate addition measured after 30 mins by fluorometric assay; format: cell-free
T1 sequence (Q9UKV0 whole entry): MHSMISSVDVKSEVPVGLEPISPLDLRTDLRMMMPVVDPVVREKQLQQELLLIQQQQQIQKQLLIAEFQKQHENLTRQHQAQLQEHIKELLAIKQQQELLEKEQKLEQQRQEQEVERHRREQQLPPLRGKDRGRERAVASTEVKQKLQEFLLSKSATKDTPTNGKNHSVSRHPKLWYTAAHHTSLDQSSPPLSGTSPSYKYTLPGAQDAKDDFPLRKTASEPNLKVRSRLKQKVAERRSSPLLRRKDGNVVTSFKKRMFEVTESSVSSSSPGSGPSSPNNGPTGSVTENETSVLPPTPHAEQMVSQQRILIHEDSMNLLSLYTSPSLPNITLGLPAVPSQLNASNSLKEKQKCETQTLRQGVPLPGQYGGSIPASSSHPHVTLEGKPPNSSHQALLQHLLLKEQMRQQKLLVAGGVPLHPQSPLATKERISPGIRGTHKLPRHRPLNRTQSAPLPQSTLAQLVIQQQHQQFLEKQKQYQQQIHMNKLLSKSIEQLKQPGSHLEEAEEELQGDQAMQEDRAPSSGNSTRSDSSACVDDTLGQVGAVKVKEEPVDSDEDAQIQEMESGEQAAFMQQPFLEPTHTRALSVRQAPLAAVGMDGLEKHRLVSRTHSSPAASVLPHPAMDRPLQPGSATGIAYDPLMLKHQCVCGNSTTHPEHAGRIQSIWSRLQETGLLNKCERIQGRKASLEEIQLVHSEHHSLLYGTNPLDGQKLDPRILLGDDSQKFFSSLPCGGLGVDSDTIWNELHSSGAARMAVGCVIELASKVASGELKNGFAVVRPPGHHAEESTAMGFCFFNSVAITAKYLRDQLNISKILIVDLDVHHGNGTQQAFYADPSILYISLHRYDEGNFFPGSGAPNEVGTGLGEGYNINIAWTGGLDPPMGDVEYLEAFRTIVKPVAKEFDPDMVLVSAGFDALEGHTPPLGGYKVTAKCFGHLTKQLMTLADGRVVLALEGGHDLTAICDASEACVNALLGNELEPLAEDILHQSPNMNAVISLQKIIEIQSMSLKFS

[2] = biological target: T2, Protein deacetylase HDAC6 (Homo sapiens, UniProt Q9UBN7); assay: Inhibition of HDAC6 (unknown origin)
T2 sequence (Q9UBN7 whole entry): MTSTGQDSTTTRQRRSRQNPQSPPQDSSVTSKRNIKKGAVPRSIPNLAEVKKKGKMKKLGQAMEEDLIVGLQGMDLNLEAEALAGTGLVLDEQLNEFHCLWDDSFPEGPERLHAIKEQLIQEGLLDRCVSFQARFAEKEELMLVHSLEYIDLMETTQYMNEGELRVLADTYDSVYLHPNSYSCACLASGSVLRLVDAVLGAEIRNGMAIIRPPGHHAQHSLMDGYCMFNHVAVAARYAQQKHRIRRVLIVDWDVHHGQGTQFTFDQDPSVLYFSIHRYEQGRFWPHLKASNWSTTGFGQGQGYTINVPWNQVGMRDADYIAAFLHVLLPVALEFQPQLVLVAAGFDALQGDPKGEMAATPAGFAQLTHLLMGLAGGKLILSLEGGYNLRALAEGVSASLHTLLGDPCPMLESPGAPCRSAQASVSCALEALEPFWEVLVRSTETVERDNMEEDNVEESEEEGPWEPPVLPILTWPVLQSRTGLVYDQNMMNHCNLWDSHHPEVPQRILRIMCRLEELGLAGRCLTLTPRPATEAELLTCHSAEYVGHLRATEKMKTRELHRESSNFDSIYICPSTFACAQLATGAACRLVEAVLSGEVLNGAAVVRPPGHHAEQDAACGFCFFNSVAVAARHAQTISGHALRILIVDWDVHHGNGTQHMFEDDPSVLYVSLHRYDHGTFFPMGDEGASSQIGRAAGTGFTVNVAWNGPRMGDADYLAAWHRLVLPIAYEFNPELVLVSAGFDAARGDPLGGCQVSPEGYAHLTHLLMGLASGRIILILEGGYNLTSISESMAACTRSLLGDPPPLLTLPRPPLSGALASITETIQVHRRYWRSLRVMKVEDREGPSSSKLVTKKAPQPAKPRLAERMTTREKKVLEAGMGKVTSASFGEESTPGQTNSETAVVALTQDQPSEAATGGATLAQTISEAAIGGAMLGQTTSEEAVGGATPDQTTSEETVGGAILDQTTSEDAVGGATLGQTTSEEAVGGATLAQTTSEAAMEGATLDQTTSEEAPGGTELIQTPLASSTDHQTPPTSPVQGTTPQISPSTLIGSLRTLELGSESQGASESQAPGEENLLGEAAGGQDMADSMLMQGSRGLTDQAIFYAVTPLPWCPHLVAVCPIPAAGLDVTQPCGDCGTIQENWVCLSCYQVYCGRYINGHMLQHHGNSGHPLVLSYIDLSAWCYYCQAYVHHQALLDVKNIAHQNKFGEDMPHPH

Histone deacetylase 5 [3] = biological target: T3, Histone deacetylase 5 (Homo sapiens, UniProt Q9UQL6); assay: Inhibition of HDAC5 in human HeLa nuclear extract using Boc-Lys(Ac)-AMC as substrate preincubated for 5 mins followed by substrate addition measured after 30 mins by fluorometric assay; format: cell-free
T3 sequence (Q9UQL6 whole entry): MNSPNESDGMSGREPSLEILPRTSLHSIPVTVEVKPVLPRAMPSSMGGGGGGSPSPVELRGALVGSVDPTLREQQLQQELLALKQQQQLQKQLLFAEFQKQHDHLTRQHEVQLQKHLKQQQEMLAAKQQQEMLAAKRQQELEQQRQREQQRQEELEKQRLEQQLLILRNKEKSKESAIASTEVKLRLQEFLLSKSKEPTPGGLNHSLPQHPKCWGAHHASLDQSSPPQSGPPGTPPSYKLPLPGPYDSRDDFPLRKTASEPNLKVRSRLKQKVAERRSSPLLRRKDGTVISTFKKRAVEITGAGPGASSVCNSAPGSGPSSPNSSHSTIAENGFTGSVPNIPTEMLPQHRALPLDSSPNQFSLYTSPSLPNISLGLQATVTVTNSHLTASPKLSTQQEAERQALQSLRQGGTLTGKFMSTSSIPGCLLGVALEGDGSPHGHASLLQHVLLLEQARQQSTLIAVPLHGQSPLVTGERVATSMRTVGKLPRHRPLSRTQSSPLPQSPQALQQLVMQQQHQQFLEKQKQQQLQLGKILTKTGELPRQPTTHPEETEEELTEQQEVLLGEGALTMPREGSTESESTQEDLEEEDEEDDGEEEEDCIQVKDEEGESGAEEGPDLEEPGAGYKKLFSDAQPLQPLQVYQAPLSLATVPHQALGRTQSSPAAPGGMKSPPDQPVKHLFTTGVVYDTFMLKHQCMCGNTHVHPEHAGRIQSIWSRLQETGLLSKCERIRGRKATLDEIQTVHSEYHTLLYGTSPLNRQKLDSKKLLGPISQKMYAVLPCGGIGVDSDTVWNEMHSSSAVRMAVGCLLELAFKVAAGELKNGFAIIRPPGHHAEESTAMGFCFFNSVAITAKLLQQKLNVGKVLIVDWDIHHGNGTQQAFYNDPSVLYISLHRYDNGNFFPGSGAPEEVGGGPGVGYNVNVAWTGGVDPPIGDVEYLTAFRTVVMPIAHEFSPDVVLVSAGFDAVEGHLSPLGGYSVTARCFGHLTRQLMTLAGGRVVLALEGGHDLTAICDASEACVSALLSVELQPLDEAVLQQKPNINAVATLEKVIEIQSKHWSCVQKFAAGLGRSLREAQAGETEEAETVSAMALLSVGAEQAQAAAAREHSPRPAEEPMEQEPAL

Histone deacetylase 7 [4] = biological target: T4, Histone deacetylase 7 (Homo sapiens, UniProt Q8WUI4); assay: Inhibition of HDAC7 (unknown origin)
T4 sequence (Q8WUI4 whole entry): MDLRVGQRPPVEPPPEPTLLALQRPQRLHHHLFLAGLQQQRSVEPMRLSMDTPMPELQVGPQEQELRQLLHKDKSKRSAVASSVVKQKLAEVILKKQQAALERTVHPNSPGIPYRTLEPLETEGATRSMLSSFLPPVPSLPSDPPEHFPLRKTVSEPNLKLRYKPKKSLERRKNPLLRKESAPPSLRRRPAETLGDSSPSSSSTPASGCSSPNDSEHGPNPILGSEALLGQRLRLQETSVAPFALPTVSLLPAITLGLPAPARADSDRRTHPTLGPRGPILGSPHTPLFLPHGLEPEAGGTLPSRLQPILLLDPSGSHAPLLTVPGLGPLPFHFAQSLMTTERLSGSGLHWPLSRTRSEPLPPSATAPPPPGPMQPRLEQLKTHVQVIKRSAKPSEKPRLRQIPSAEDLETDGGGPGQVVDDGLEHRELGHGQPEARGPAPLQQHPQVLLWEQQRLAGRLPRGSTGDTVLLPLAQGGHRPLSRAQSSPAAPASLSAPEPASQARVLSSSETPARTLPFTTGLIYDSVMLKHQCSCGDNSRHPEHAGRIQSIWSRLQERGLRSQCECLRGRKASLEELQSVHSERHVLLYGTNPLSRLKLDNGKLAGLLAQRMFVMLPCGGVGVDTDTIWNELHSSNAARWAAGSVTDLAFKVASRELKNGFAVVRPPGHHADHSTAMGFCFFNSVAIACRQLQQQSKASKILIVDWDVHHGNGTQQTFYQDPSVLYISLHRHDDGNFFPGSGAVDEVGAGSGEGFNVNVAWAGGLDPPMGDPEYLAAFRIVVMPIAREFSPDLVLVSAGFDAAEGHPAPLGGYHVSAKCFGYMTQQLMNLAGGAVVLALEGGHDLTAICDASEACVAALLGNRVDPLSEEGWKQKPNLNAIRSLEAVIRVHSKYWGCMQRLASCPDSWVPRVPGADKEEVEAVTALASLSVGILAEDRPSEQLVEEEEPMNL

Histone deacetylase 4 [5] = biological target: T5, Histone deacetylase 4 (Homo sapiens, UniProt P56524); assay: Inhibition of HDAC4 (unknown origin)
T5 sequence (P56524 whole entry): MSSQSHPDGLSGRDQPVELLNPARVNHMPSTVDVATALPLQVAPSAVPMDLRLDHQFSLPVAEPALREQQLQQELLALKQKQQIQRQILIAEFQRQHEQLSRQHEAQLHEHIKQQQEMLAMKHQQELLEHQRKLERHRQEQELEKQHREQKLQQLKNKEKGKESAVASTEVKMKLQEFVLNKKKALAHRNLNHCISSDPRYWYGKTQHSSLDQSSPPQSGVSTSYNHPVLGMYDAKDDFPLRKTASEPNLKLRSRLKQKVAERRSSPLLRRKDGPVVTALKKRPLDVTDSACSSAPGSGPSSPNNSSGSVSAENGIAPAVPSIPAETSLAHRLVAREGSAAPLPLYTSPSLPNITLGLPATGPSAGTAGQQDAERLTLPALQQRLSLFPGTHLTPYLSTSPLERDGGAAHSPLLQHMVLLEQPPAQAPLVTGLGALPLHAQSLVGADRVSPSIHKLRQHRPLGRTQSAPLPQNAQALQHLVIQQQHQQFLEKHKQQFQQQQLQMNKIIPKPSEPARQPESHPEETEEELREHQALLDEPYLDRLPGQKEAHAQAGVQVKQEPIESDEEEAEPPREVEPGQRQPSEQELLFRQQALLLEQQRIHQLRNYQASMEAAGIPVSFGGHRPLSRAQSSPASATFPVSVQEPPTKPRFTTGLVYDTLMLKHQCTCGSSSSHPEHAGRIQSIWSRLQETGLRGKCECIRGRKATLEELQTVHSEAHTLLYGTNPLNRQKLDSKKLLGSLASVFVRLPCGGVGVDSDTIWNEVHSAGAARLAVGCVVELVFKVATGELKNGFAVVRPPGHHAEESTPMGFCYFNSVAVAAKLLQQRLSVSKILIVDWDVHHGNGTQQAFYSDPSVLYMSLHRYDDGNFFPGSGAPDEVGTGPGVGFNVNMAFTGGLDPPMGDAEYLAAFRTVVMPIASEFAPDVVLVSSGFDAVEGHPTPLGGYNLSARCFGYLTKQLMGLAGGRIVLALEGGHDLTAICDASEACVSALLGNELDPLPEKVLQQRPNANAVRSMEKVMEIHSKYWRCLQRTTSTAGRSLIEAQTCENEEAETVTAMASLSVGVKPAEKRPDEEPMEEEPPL

Histone deacetylase 4 [6] = biological target: T5, Histone deacetylase 4; assay: Inhibition of HDAC4 in human HeLa nuclear extract using Boc-Lys(Ac)-AMC as substrate preincubated for 5 mins followed by substrate addition measured after 30 mins by fluorometric assay; format: cell-free
[7] = biological target: T2, Protein deacetylase HDAC6; assay: Inhibition of HDAC6 in human HeLa nuclear extract using Boc-Lys(Ac)-AMC as substrate preincubated for 5 mins followed by substrate addition measured after 30 mins by fluorometric assay; format: cell-free
Histone deacetylase 7 [8] = biological target: T4, Histone deacetylase 7; assay: Inhibition of HDAC7 in human HeLa nuclear extract using Boc-Lys(Ac)-AMC as substrate preincubated for 5 mins followed by substrate addition measured after 30 mins by fluorometric assay; format: cell-free
Histone deacetylase 9 [9] = biological target: T1, Histone deacetylase 9; assay: Inhibition of HDAC9 (unknown origin)
Histone deacetylase 5 [10] = biological target: T3, Histone deacetylase 5; assay: Inhibition of HDAC5 (unknown origin)
Histone deacetylase 3 = Histone deacetylase 3 (Homo sapiens, UniProt O15379); assay: Inhibition of HDAC3 (unknown origin)
Sequence of Histone deacetylase 3 (O15379 whole entry): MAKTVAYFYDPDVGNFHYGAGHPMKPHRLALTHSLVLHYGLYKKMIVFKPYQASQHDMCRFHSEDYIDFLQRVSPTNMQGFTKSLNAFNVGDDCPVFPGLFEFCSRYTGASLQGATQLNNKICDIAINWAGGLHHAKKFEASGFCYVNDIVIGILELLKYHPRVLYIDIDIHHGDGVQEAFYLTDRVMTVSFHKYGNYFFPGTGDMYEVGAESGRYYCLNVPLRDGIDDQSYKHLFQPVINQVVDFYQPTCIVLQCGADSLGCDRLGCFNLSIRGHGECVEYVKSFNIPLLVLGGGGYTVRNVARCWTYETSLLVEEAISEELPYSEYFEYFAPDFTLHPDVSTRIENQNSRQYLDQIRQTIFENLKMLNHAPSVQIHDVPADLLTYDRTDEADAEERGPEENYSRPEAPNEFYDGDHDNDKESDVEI

Histone deacetylase 11 = biological target: T6, Histone deacetylase 11 (Homo sapiens, UniProt Q96DB2); assay: Inhibition of HDAC11 (unknown origin)
T6 sequence (Q96DB2 whole entry): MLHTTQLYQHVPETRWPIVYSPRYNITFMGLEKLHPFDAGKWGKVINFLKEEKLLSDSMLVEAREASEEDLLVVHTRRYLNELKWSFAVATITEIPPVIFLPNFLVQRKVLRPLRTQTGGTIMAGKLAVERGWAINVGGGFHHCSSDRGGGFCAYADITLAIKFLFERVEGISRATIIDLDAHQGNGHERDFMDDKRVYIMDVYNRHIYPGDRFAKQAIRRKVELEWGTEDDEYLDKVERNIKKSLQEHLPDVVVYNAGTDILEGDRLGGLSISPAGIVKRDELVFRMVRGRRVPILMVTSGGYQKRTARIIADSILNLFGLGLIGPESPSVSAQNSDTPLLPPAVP

Histone deacetylase 2 = Histone deacetylase 2 (Homo sapiens, UniProt Q92769); assay: Inhibition of HDAC2 (unknown origin)
Sequence of Histone deacetylase 2 (Q92769 whole entry): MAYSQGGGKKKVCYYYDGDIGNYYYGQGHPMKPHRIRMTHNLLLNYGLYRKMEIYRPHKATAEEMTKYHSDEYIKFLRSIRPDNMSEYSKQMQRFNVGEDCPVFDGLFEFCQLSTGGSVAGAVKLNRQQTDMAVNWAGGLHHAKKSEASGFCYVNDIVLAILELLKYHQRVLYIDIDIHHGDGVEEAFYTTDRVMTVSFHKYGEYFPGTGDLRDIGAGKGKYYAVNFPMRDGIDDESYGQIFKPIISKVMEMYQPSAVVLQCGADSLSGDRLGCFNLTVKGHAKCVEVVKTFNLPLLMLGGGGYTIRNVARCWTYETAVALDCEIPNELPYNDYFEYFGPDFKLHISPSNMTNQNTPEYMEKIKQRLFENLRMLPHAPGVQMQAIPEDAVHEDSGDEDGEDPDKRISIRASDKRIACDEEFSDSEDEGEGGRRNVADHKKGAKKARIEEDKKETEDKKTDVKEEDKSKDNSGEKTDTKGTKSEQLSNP

[11] = biological target: T7, Polyamine deacetylase HDAC10 (Homo sapiens, UniProt Q969S8); assay: Inhibition of HDAC10 (unknown origin)
T7 sequence (Q969S8 whole entry): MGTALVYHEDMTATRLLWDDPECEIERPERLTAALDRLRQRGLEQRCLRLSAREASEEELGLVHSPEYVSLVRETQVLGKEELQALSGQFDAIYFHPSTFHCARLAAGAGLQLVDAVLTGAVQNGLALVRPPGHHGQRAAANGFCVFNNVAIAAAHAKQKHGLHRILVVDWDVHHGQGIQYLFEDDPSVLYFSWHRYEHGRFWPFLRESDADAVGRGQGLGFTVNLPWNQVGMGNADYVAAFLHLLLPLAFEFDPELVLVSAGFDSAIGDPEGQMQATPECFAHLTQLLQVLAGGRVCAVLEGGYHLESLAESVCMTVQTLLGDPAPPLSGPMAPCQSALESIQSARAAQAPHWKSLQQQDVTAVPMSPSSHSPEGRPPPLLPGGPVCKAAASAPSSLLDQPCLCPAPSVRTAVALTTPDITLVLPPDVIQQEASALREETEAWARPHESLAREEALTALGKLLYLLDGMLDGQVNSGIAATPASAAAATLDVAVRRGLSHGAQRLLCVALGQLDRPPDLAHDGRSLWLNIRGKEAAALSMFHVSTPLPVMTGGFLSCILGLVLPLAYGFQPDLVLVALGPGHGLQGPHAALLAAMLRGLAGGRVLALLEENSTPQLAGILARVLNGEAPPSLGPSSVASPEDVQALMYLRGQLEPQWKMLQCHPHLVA

Histone deacetylase 1 = Histone deacetylase 1 (Homo sapiens, UniProt Q13547); assay: Inhibition of HDAC1 (unknown origin)
Sequence of Histone deacetylase 1 (Q13547 whole entry): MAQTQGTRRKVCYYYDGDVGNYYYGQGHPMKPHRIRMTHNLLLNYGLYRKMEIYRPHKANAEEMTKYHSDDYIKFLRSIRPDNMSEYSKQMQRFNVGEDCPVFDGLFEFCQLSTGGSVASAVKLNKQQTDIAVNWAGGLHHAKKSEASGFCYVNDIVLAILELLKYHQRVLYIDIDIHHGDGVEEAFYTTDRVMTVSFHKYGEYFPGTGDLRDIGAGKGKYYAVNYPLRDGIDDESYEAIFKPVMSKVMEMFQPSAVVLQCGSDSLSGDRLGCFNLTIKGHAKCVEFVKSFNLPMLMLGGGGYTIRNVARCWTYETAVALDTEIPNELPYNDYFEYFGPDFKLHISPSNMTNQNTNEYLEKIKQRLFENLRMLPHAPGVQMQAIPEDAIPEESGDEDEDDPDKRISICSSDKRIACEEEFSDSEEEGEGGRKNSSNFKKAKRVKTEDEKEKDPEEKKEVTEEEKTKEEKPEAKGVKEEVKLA

Histone deacetylase 8 = biological target: T8, Histone deacetylase 8 (Homo sapiens, UniProt Q9BY41); assay: Inhibition of HDAC8 (unknown origin)
T8 sequence (Q9BY41 whole entry): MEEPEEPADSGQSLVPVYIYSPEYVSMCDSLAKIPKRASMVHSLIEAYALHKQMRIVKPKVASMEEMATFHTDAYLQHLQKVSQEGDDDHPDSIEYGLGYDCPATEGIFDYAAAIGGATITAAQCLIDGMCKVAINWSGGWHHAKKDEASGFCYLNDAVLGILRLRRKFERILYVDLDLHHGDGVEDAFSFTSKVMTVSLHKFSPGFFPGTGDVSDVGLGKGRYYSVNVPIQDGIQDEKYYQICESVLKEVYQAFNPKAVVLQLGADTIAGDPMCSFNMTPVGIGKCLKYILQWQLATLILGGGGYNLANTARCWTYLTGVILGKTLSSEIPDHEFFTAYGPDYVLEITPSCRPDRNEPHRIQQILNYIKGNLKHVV

SMILES | pKi (Histone deacetylase 3) | pKi [2] | pKi (Histone deacetylase 11) | pKi (Histone deacetylase 4 [5]) | pKi (Histone deacetylase 2) | pKi [11] | pKi (Histone deacetylase 9 [9]) | pKi (Histone deacetylase 1) | pKi (Histone deacetylase 5 [10]) | pKi (Histone deacetylase 8) | further results
CN(Cc1cnc2nc(N)nc(N)c2n1)c1ccc(C(=O)NC(CCP(=O)(O)O)P(=O)(O)O)cc1 (stereo unspecified) |  |  |  |  |  |  |  |  |  |  | pIC50 (Histone deacetylase 9 [1]): < 4.40; pIC50 [2]: < 4.40; pIC50 (Histone deacetylase 5 [3]): < 4.40; pIC50 (Histone deacetylase 7 [4]): 4.79; pIC50 (Histone deacetylase 4 [5]): 5.38; pIC50 (Histone deacetylase 4 [6]): < 4.40; pIC50 [7]: < 4.40; pIC50 (Histone deacetylase 7 [8]): < 4.40; pIC50 (Histone deacetylase 9 [9]): 5.11; pIC50 (Histone deacetylase 5 [10]): 5.90
CN1CCC(CNC(=O)c2cccc(C(=O)NO)c2)(c2nc(-c3ccccc3)cs2)CC1 | < 4.37 | 6.72 | < 4.72 | 4.62 | < 4.72 | < 5.00 | 5.22 | 4.92 | 4.61 | 5.88 | pKi (Histone deacetylase 7 [4]): 5.40
CN1CCC(CNC(=O)c2cccc(-c3noc(C(F)(F)F)n3)c2)(c2nc(-c3ccccc3)cs2)CC1 | < 4.37 | 5.55 | < 4.72 | 7.12 | < 4.72 | < 5.00 | 8.10 | < 4.64 | 6.74 | 5.12 | 
